Experimental data: ChEMBL document CHEMBL1201862, “PubChem BioAssay data set” (2004)
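Growth conditions: 96-well plates. Treatment: test compound, 48 hours, 5 concentrations. Analysis: linear interpolation between bracketing concentrations; unreached endpoints set to highest concentration. GI50 = concentration required for 50% inhibition of growth.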 The source made the active and inactive calls. No stated cut-off is given here; in the data, active = GI50 up to about 1.1 µM and inactive = higher.

Legend:
Test in all cases: NCI-60 cell line screen, 48 h
[1] = test system: COLO 205
[2] = test system: NCI-H460
[3] = test system: U-251
[4] = test system: NCI-H23
[5] = test system: A498
[6] = test system: KM12
[7] = test system: 786-0
[8] = test system: UACC-62
[9] = test system: ACHN
[10] = test system: SK-MEL-2
[11] = test system: SF-268
[12] = test system: HOP-62
[13] = test system: OVCAR-8
[14] = test system: LOX IMVI
[15] = test system: NCI-H226

Measured: GI50

CS/C(=N\C(=S)N(C)C)N(c1ccccc1)c1nc(N(C)C)s[s+]1
inactive: [1] 2 µM | [2] 2.91 µM | [3] 6.84 µM | [4] 12.4 µM | [5] 1.9 µM | [6] 3.65 µM | [7] 16.4 µM | [8] 4.88 µM | [9] 23.8 µM | [10] 5.52 µM | [11] 12.1 µM | [12] 19.5 µM | [13] 10.4 µM | [14] 5.74 µM

C=C1CCC23CC(CC[C@@H]2[C@@]12C[C@@H](c1ccoc1)OC2=O)OC3=O (stereo partly specified)
inactive: [1] > 100 µM | [2] > 100 µM | [3] > 100 µM | [4] > 100 µM | [5] > 100 µM | [6] > 100 µM | [7] > 100 µM | [8] > 100 µM | [9] > 100 µM | [10] > 100 µM | [11] > 100 µM | [12] > 100 µM | [13] > 100 µM | [15] > 100 µM

O=C(O)COc1ccccc1C(=O)Nc1ccccc1
inactive: [1] > 100 µM | [2] > 100 µM | [3] > 100 µM | [4] > 100 µM | [6] > 100 µM | [7] > 100 µM | [8] > 100 µM | [9] > 100 µM | [10] > 100 µM | [11] > 100 µM | [12] > 100 µM | [13] > 100 µM | [14] > 100 µM | [15] > 100 µM

COC(=O)C1CCC[C@H]2C(CO)=C(C)C(=O)[C@@H]12 (stereo partly specified)
inactive: [1] > 100 µM | [2] > 100 µM | [3] > 100 µM | [4] > 100 µM | [5] > 100 µM | [6] > 100 µM | [7] > 100 µM | [8] > 100 µM | [9] > 100 µM | [10] > 100 µM | [11] > 100 µM | [12] > 100 µM | [13] > 100 µM | [15] > 100 µM

CCOC(=O)NC(=O)c1cn(CCSCCOC(=O)NCCCCCCNC(=O)OCCSCCn2cc(C(=O)NC(=O)OCC)c(=O)n(C)c2=O)c(=O)n(C)c1=O
inactive: [1] 56.2 µM | [2] 29.9 µM | [3] 16.8 µM | [4] 19.9 µM | [7] 30.3 µM | [8] 24.8 µM | [9] > 100 µM | [10] 34.2 µM | [11] 24 µM | [12] 51.5 µM | [13] 20.1 µM | [14] 32.1 µM | [15] 21.1 µM

COC1/C(=C\c2ccccc2I)c2ccccc2N1C(C)=O (stereo unspecified)
inactive: [1] 17.6 µM | [2] 17.6 µM | [3] 18.6 µM | [4] 15.7 µM | [5] 15.8 µM | [6] 15.6 µM | [7] 18.1 µM | [8] 13 µM | [9] 19.5 µM | [10] 17.5 µM | [12] 17.2 µM | [13] 30 µM

Cc1nc2c(o1)/C(=N\c1ccccc1)c1ccccc1/C2=N/c1ccccc1
inactive: [1] 29.1 µM | [2] 39.4 µM | [3] 79.3 µM | [4] 49.2 µM | [5] > 100 µM | [6] 85.5 µM | [7] 45.1 µM | [8] > 100 µM | [9] 53.6 µM | [10] 61.9 µM | [11] > 100 µM | [12] > 100 µM | [13] > 100 µM | [14] 28.4 µM

CCc1ccccc1NC(=O)CCc1n[nH]c(=S)o1
inactive: [1] > 100 µM | [2] > 100 µM | [3] > 100 µM | [4] > 100 µM | [5] > 100 µM | [6] > 100 µM | [7] > 100 µM | [8] > 100 µM | [9] > 100 µM | [11] > 100 µM | [12] > 100 µM | [13] > 100 µM | [15] > 100 µM

CN(C)/N=C(\CCN1CCCC1)CC(c1ccccc1)c1c(O)c2ccccc2oc1=O (stereo unspecified)
inactive: [1] > 100 µM | [4] > 100 µM | [7] > 100 µM | [8] > 100 µM | [9] > 100 µM | [10] > 100 µM | [11] > 100 µM | [12] > 100 µM | [14] > 100 µM | [15] > 100 µM

O=c1nc(-c2ccccc2)scc1-c1ccccc1
inactive: [1] > 100 µM | [2] > 100 µM | [3] 98.6 µM | [4] > 100 µM | [6] > 100 µM | [7] 78.3 µM | [8] 35.5 µM | [9] > 100 µM | [10] > 100 µM | [11] 86.3 µM | [12] 44.7 µM | [13] > 100 µM | [15] > 100 µM

CC1OC=CC(=O)C1O (stereo unspecified)
inactive: [2] > 100 µM | [3] > 100 µM | [4] > 100 µM | [6] > 100 µM | [8] > 100 µM | [9] > 100 µM | [10] > 100 µM | [12] > 100 µM | [13] > 100 µM | [14] > 100 µM
